The source of these data is patent EP4722207A1, “OXOISOINDOLINYL-SUBSTITUTED TETRAHYDROPYRIMIDINEDIONE DERIVATIVE AND USE THEREOF” (Gluetacs Therapeutics (Shanghai) Co., Ltd., priority 2023, dated 2024).

One assay deals with T1, IKZF2 (Homo sapiens, UniProt Q96SW2+Q9UKS7).
T1 construct: effects of the compounds of the present disclosure on the expression of target proteins in cells; endogenous in cells; host or cells: human PBMCs (hPBMCs)
The experiment in a line: Western-blot assay, substrate protein degradation in hPBMCs: IKZF2. The assay is classed as cell-based. To be noted: for substrate protein remaining % IKZF2: 24 hours of compound treatment, 50 nM and 500 nM.

The next assay concerns the target T2, GSPT1 (Homo sapiens, UniProt P15170+Q96SW2).
T2 construct: effects of the compounds of the present disclosure on the expression of target proteins in cells; endogenous in cells; host or cells: human PBMCs (hPBMCs)
The experiment in a line: Western-blot assay, substrate protein degradation in hPBMCs: GSPT1. To be noted: for substrate protein remaining % GSPT1: 24 hours of compound treatment, 50 nM and 500 nM. The assay is classed as cell-based.

In another assay the target is T3, IKZF3 (Homo sapiens, UniProt Q96SW2+Q9UKT9).
T3 construct: effects of the compounds of the present disclosure on the expression of target proteins in cells; endogenous in cells; host or cells: human PBMCs (hPBMCs)
T3 sequence (Q9UKT9 whole entry): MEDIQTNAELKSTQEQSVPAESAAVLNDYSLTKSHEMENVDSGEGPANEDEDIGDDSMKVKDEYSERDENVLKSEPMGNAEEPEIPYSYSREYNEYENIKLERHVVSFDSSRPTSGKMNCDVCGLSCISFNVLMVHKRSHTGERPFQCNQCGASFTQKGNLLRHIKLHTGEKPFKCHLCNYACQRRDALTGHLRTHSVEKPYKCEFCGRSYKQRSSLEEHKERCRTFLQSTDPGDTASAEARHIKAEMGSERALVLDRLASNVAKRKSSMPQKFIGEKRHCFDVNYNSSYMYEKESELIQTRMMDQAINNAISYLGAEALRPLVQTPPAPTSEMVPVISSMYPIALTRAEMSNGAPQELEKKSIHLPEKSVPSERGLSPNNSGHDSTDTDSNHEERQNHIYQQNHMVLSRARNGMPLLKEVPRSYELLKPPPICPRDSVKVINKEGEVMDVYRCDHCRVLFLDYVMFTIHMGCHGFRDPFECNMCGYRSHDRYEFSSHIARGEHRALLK
T3 sequence (Q96SW2 whole entry): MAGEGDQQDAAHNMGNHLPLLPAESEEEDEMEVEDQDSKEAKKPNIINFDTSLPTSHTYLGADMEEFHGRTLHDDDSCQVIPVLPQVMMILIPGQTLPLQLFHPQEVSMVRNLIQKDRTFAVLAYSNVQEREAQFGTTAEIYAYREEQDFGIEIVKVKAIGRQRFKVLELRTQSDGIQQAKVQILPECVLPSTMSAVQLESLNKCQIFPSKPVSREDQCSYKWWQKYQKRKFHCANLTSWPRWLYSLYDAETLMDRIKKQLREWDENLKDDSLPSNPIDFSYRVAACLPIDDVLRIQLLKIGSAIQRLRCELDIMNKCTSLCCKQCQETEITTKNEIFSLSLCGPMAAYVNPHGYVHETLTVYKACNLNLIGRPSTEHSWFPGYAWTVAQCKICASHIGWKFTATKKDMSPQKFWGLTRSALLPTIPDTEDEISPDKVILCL
T3 sequence (Q16531 whole entry partner): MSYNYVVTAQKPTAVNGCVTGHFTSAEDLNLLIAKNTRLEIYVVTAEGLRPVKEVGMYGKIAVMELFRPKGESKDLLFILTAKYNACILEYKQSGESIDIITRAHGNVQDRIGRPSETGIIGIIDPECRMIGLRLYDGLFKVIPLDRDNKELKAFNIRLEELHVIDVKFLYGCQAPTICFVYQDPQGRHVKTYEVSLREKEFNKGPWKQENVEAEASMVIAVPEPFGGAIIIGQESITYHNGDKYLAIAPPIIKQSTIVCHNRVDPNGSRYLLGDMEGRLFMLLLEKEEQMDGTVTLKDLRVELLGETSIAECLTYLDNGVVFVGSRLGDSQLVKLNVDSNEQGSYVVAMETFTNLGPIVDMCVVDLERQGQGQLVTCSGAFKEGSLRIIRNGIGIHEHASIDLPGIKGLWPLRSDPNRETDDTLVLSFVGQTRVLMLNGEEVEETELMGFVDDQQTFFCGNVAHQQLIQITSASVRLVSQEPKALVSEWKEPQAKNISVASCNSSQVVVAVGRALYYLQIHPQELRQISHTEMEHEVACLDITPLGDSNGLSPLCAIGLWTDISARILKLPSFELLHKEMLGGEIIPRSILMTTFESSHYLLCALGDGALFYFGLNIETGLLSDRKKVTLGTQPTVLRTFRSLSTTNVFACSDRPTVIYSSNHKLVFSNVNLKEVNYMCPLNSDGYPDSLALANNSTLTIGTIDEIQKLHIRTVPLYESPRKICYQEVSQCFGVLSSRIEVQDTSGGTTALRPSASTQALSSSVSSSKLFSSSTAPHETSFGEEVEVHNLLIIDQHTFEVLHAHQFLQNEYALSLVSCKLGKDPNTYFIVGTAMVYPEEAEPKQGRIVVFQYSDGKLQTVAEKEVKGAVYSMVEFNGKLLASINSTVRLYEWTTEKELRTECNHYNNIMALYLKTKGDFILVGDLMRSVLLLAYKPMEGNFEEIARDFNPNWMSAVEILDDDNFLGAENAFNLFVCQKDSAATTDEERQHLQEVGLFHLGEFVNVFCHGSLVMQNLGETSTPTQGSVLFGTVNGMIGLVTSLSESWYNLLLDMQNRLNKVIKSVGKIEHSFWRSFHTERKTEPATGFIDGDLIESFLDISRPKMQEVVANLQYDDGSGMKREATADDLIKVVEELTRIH
The assay is described as follows: Western-blot assay, substrate protein degradation in hPBMCs: IKZF3. Format: cell-based. To be noted: for substrate protein remaining % IKZF3: 24 hours of compound treatment, 50 nM and 500 nM.

A further assay has as its target T4, WEE1 (Homo sapiens, UniProt P30291+Q96SW2).
T4 construct: effects of the compounds of the present disclosure on the expression of target proteins in cells; endogenous in cells; host or cells: human PBMCs (hPBMCs)
The experiment in a line: Western-blot assay, substrate protein degradation in hPBMCs: WEE1. Format: cell-based. To be noted: for substrate protein remaining % WEE1: 24 hours of compound treatment, 50 nM and 500 nM.

The target of the next assay is T5, CK1α (Homo sapiens, UniProt P48729+Q96SW2).
T5 construct: effects of the compounds of the present disclosure on the expression of target proteins in cells; endogenous in cells; host or cells: human PBMCs (hPBMCs)
T5 sequence (P48729 whole entry): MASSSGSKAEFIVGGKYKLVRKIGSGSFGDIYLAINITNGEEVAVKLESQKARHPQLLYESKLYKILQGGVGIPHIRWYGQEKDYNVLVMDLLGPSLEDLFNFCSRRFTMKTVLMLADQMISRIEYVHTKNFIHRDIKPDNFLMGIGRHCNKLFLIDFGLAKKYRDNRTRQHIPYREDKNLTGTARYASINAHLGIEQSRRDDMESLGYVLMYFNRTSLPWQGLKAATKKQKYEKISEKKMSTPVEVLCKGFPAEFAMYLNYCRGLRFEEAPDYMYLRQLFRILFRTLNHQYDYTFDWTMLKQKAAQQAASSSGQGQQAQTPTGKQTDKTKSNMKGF
T5 sequence (Q96SW2 whole entry): as the sequence (Q96SW2 whole entry) above
T5 sequence (Q16531 whole entry partner): as the sequence (Q16531 whole entry partner) above
The experiment in a line: Western-blot assay, substrate protein degradation in hPBMCs: CK1α. The assay is classed as cell-based. To be noted: for substrate protein remaining % CK1α: 24 hours of compound treatment, 50 nM and 500 nM.

Another assay addresses T6, IKZF1 (Homo sapiens, UniProt Q13422+Q96SW2).
T6 construct: effects of the compounds of the present disclosure on the expression of target proteins in cells; endogenous in cells; host or cells: human PBMCs (hPBMCs)
The assay is described as follows: Western-blot assay, substrate protein degradation in hPBMCs: IKZF1. The assay is classed as cell-based. To be noted: for substrate protein remaining % IKZF1: 24 hours of compound treatment, 50 nM and 500 nM.

The next assay deals with H292. The experiment in a line: Cell viability assay (CellTiter-Meiluncell Luminescent), tumor cell proliferation, H292. To be noted: Homo sapiens, NCI-H292, 96 h; for inhibition at 0.01 µM: read-out: Inhibition Rate at 10 nM (%); for inhibition at 0.5 µM: read-out: Inhibition Rate at 500 nM (%).
Setting [1] is: compounds at 50 nM and 500 nM, 24 hours.

T2 sequence (P15170 whole entry): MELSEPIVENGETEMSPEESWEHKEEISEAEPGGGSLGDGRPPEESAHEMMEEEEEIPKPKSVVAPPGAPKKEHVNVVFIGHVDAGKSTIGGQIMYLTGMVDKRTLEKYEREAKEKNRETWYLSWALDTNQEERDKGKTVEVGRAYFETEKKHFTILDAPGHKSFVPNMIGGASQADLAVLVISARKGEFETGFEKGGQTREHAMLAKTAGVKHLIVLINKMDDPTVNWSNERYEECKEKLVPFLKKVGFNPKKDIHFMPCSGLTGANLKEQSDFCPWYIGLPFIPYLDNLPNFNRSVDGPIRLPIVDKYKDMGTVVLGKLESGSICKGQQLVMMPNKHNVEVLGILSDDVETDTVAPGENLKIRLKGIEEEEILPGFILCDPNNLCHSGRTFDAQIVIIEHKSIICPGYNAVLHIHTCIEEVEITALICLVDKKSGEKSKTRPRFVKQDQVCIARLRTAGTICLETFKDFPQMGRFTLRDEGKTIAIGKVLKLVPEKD
T2 sequence (Q96SW2 whole entry): as the sequence (Q96SW2 whole entry) above
T2 sequence (Q16531 whole entry partner): as the sequence (Q16531 whole entry partner) above
T4 sequence (P30291 whole entry): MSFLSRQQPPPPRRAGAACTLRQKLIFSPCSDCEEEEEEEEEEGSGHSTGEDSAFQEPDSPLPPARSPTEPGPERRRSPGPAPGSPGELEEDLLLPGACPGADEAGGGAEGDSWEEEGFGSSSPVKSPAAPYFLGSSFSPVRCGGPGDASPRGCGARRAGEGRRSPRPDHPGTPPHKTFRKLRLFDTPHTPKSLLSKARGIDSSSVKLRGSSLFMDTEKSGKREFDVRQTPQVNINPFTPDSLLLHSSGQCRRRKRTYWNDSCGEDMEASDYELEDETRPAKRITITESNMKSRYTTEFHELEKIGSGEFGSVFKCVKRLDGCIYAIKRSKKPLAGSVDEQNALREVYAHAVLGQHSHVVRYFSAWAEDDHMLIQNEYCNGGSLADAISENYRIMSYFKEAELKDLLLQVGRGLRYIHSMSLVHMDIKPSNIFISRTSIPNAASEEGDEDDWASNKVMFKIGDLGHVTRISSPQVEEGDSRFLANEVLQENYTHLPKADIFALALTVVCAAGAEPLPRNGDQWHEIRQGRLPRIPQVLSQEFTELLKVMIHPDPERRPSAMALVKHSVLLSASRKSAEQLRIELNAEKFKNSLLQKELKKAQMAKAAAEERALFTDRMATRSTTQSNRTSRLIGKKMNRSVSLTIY
T4 sequence (Q96SW2 whole entry): as the sequence (Q96SW2 whole entry) above
T4 sequence (Q16531 whole entry partner): as the sequence (Q16531 whole entry partner) above
T6 sequence (Q13422 whole entry): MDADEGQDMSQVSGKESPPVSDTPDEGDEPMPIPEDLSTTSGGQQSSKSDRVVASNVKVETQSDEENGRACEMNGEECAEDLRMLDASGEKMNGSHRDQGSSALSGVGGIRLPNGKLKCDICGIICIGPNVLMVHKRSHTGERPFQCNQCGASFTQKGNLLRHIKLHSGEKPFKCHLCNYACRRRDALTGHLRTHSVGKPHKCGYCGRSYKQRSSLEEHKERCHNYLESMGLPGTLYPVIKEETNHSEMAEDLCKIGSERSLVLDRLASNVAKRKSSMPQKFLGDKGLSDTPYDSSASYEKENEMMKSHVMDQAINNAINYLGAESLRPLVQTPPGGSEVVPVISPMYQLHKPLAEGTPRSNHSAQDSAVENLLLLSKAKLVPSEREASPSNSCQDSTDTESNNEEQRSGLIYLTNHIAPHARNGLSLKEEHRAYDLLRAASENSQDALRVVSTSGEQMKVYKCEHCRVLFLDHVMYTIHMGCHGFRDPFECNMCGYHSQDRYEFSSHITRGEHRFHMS
T6 sequence (Q96SW2 whole entry): as the sequence (Q96SW2 whole entry) above
T6 sequence (Q16531 whole entry partner): as the sequence (Q16531 whole entry partner) above
Experimental for H292: The tumor cells used herein were cultured in a cell culture medium listed in table 2 at 37°C in an incubator with 5% CO2. Prior to experimentation, all cell lines used were correctly identified by STR profiling, and tested negative for mycoplasma contamination using a mycoplasma detection kit through routine screenings.
On the following day, the test compounds of the present disclosure were subjected to serial dilution. […] Subsequently, 0.5 µL of the test compound dilution was transferred into the 96-well plate containing the cells, with each well containing 100 µL of cell culture medium. […] Into the 96-well plate, the diluted test compounds and corresponding detection reagents were added, resulting in final test compound concentrations of 500 nM and 10 nM, respectively. The experimental procedure is described below using the diluted 2 µM test compound as an example.
After the cells were treated with the compounds of the present disclosure for a specified period, the cell viability assay reagent was added to the culture medium according to the kit's instructions to determine cell viability. […] All controls were treated using the same procedure as the compounds of the present disclosure. The growth inhibition curves for the compounds of the present disclosure were plotted using Prism GraphPad software, and the IC50 values were calculated therefrom.

For `Cc1csc2ncnc(C3=CCN(Cc4ccc5c(c4)C(=O)N(N4CCC(=O)NC4=O)C5=O)CC3)c12` [GT-08428, 2-(2,4-dioxotetrahydropyrimidin-1(2H)-yl)-5-((4-(5-methylthieno[2,3-d]pyrimidin-4-yl)-3,6-dihydropyridin-1(2H)-yl)methyl)isoindoline-1,3-dione], at IKZF2, the “substrate protein remaining % IKZF2” value was “A (0% ≤ substrate protein remaining % ≤ 80%)”. Also, on GSPT1, the “substrate protein remaining % GSPT1” value is recorded as “B (80%< substrate protein remaining %≤ 100%)”. Moreover, the “substrate protein remaining % IKZF3” value at IKZF3 is “A (0% ≤ substrate protein remaining % ≤ 80%)”. Besides, the “substrate protein remaining % WEE1” value at WEE1 is given as “A (0% ≤ substrate protein remaining % ≤ 80%)”. The “substrate protein remaining % CK1α” value at CK1α was “B (80%< substrate protein remaining %≤ 100%)”. Further, the “substrate protein remaining % IKZF1” value on IKZF1 is on record as “B (80%< substrate protein remaining %≤ 100%)”. Further, in the assay on H292, the inhibition (in general, the percentage by which the read-out fell short of the control) at 0.01 µM lay within 5 to 10% and the inhibition at 0.5 µM fell in the range of 20 to 40%.
Take `O=C1CCN(N2C(=O)c3ccc(CN4CCN(c5ncc6ccsc6n5)CC4)cc3C2=O)C(=O)N1` [GT-08105, 2-(2,4-dioxotetrahydropyrimidin-1(2H)-yl)-5-((4-(thieno[2,3-d]pyrimidin-2-yl)piperazin-1-yl)methyl)isoindoline-1,3-dione]: the “substrate protein remaining % IKZF2” value at IKZF2 is given as “A (0% ≤ substrate protein remaining % ≤ 80%)”. Besides, the “substrate protein remaining % GSPT1” value on GSPT1 was “A (0% ≤ substrate protein remaining % ≤ 80%)”. Moreover, the “substrate protein remaining % IKZF3” value on IKZF3 is listed as “A (0% ≤ substrate protein remaining % ≤ 80%)”. Also, the “substrate protein remaining % WEE1” value on WEE1 is listed as “B (80%< substrate protein remaining %≤ 100%)”. For the same molecule, the “substrate protein remaining % CK1α” value at CK1α was “B (80%< substrate protein remaining %≤ 100%)”. On IKZF1, the “substrate protein remaining % IKZF1” value is recorded as “B (80%< substrate protein remaining %≤ 100%)”. Besides, in the assay with H292, the inhibition at 0.01 µM lay in the range of 10 to 15% and the inhibition at 0.5 µM is 10 to 15%.
Regarding `O=C1CCN(N2Cc3cc(CN4CCC(c5ncc6ccsc6n5)CC4)ccc3C2=O)C(=O)N1` [GT-08115, 1-(1-oxo-5-((4-(thieno[2,3-d]pyrimidin-2-yl)piperidin-1-yl)methyl)isoindolin-2-yl)dihydropyrimidine-2,4(1H,3H)-dione], the “substrate protein remaining % IKZF2” value at IKZF2 is reported as “B (80%< substrate protein remaining %≤ 100%)”. Also, the “substrate protein remaining % GSPT1” value at GSPT1 is “A (0% ≤ substrate protein remaining % ≤ 80%)”. Also, the “substrate protein remaining % IKZF3” value at IKZF3 is given as “B (80%< substrate protein remaining %≤ 100%)”. Besides, the “substrate protein remaining % WEE1” value on WEE1 was “B (80%< substrate protein remaining %≤ 100%)”. On CK1α, the “substrate protein remaining % CK1α” value is on record as “A (0% ≤ substrate protein remaining % ≤ 80%)”. Moreover, on IKZF1, the “substrate protein remaining % IKZF1” value was “B (80%< substrate protein remaining %≤ 100%)”. Further, in the assay with H292, the inhibition at 0.01 µM is 20 to 40% and the inhibition at 0.5 µM was 15 to 20%.
Consider `O=C1CCN(N2C(=O)c3ccc(CN4CCC(c5ncnc6sc7c(c56)CCC7)CC4)cc3C2=O)C(=O)N1` [GT-08425, 5-((4-(6,7-dihydro-5H-cyclopenta[4,5]thieno[2,3-d]pyrimidin-4-yl)piperidin-1-yl)methyl)-2-(2,4-dioxotetrahydropyrimidin-1(2H)-yl)isoindoline-1,3-dione], for which, in the assay on H292, the inhibition at 0.01 µM fell in the range of 15 to 20% and the inhibition at 0.5 µM lay within 5 to 10%.
As to `CC(C)c1cc2c(C3=CCN(Cc4ccc5c(c4)C(=O)N(N4CCC(=O)NC4=O)C5=O)CC3)ncnc2s1` [GT-08429, 2-(2,4-dioxotetrahydropyrimidin-1(2H)-yl)-5-((4-(6-isopropylthieno[2,3-d]pyrimidin-4-yl)-3,6-dihydropyridin-1(2H)-yl)methyl)isoindoline-1,3-dione], in the assay with H292, the inhibition at 0.01 µM was 20 to 40% and the inhibition at 0.5 µM fell in the range of 20 to 40%.
`CC1(C)[C@@H]2CC[C@]1(CS(=O)(=O)NCc1ccc3c(c1)CN(N1CCC(=O)NC1=O)C3=O)C(=O)C2` [GT-08133, 1-((1R,4R)-7,7-dimethyl-2-oxobicyclo[2.2.1]heptan-1-yl)-N-((2-(2,4-dioxotetrahydropyrimidin-1(2H)-yl)-1-oxoisoindolin-5-yl)methyl)methanesulfonamide]: in the assay on H292, the inhibition at 0.01 µM fell in the range of 15 to 20% and the inhibition at 0.5 µM was 20 to 40%.
As for `Cc1nc(N2CCN(Cc3ccc4c(c3)C(=O)N(N3CCC(=O)NC3=O)C4=O)CC2)c2ccsc2n1` [GT-08100, 2-(2,4-dioxotetrahydropyrimidin-1(2H)-yl)-5-((4-(2-methylthieno[2,3-d]pyrimidin-4-yl)piperazin-1-yl)methyl)isoindoline-1,3-dione], in the assay on H292, the inhibition at 0.01 µM is 5 to 10% and the inhibition at 0.5 µM fell in the range of 10 to 15%.
With `O=C1CCN(N2C(=O)c3ccc(CN4CCN(c5nc(N6CCOCC6)c6sccc6n5)CC4)cc3C2=O)C(=O)N1` [GT-08456, 2-(2,4-dioxotetrahydropyrimidin-1(2H)-yl)-5-((4-(4-morpholinothieno[3,2-d]pyrimidin-2-yl)piperazin-1-yl)methyl)isoindoline-1,3-dione], in the assay on H292, the inhibition at 0.01 µM was in the range of 5 to 10% and the inhibition at 0.5 µM is 20 to 40%.
For `Cc1nc(C2CCN(Cc3ccc4c(c3)C(=O)N(N3CCC(=O)NC3=O)C4=O)CC2)c2c3c(sc2n1)CCC3` [GT-08426, 2-(2,4-dioxotetrahydropyrimidin-1(2H)-yl)-5-((4-(2-methyl-6,7-dihydro-5H-cyclopenta[4,5]thieno[2,3-d]pyrimidin-4-yl)piperidin-1-yl)methyl)isoindoline-1,3-dione] the same measures were 20 to 40% and 20 to 40%.
In the case of `O=C1CCN(N2Cc3cc(CN4CC(n5cnc6cc(F)ccc65)C4)ccc3C2=O)C(=O)N1` [GT-07723, 1-(5-((3-(5-fluoro-1H-benzo[d]imidazol-1-yl)azetidin-1-yl)methyl)-1-oxoisoindolin-2-yl)dihydropyrimidine-2,4(1H,3H)-dione], in the assay with H292, the inhibition at 0.01 µM is 15 to 20% and the inhibition at 0.5 µM is 5 to 10%.
`O=C1CCN(N2C(=O)c3ccc(CN4CCN(c5ccc(C(F)(F)F)cn5)CC4)cc3C2=O)C(=O)N1` [GT-06968, 2-(2,4-dioxotetrahydropyrimidin-1(2H)-yl)-5-((4-(5-(trifluoromethyl)pyridin-2-yl)piperazin-1-yl)methyl)isoindoline-1,3-dione]: the “IKZF2 substrate protein remaining %” value at IKZF2 (setting [1]) is on record as “A ("A" is defined as 0% ≤ substrate protein remaining % ≤ 80%)”. The “GSPT1 substrate protein remaining %” value at GSPT1 (setting [1]) is recorded as “B ("B" is defined as 80%< substrate protein remaining %≤ 100%)”. At IKZF3 (setting [1]), the “IKZF3 substrate protein remaining %” value was “B ("B" is defined as 80%< substrate protein remaining %≤ 100%)”. Further, on WEE1 (setting [1]), the “WEE1 substrate protein remaining %” value is “A ("A" is defined as 0% ≤ substrate protein remaining % ≤ 80%)”. Besides, on CK1α (setting [1]), the “CK1α substrate protein remaining %” value is reported as “B ("B" is defined as 80%< substrate protein remaining %≤ 100%)”. Also, the “IKZF1 substrate protein remaining %” value on IKZF1 (setting [1]) is reported as “B ("B" is defined as 80%< substrate protein remaining %≤ 100%)”.
